In this assay the test system is cancer cells. Description: Cancer cell proliferation assay. Format: cell-based. The method, then: Percent inhibition of cancer cell migration was performed in a wound healing assay. The percent area that the invading cancer cells occupied, in the presence of a drug candidate compared to the controls, was quantified by Image J cell software which enables cell counting from photographs. IC50's were calculated by performing migration experiments at several compound concentrations and then applying Hill's equation. Inhibition of cancer cell proliferation was quantified by automated cell counting in the presence or absence of a drug candidate. […] The effect of the drug candidates on stem cell pluripotency or proliferation was scored by eye, based on cell morphology and cell density, with 0 being no change in morphology or cell number and 4 being the most profound effect, with the stem cells taking on the morphology of a differentiating cell, along with much fewer cells indicative of inhibition of proliferation. […]
For the cancer cell proliferation experiment cancer cells were plated at constant densities (6000 cells/well) into a 96-well White-walled/Clear-bottom Tissue Culture Treated plate (Corning Incorporated, Big Flats, NY). […] At the 120 hour mark a calcein fluorescence assay (Thermo Fisher Scientific, Waltham, MA) is performed on the plate. Calcein fluorescence (final concentration 0.5 uM) is used to assess cell viability. […]

As to `CN(C[C@H]1CC[C@H](C(=O)N2CCc3c([nH]c4ccccc34)C2C2CC2)CC1)C(=O)NC(C)(C)C` (some centres unmarked) [MN1413], the “inhibited cancer cell proliferation” value is given as “about 50%”.

Take `C[C@@H]1Cc2c([nH]c3ccccc23)CN1C(=O)C1CCC(CN(C)C(=O)NC(C)(C)C)CC1` (some centres unmarked) [MN1423]: the “inhibited cancer cell proliferation” value is 50%.

The values above are taken from patent US12630512B2, “Agents for differentiating stem cells and treating cancer” (Minerva Biotechnologies Corporation, priority 2017, dated 2026).
